What was measured:
[1] = system: burn wounds; experiment: Burn wounds, 15% body surface, treatment started 50 days after burning (rats); format: in vivo, Sprague-Dawley rats; conditions: 15% burn, open wounds after 50 days placebo; 1% BAC-3 ointment, tapering schedule
From the text: The wound surface areas tested were of two different sizes. One size to 7% of the body surface, which enables one to compare the rate of wound healing with different percentage of BAC-3 and the other size to 15% of the body surface, which is a sufficient size so that healing could not occur by contraction alone. On the other hand, the total wound surface area should not cause major systematic problems. The latter can be concluded from undisturbed weight gain of the animals. The standard animal burn was performed by techniques and device described by Walker. The burning devices were prepared using a model device ordered from U.S. Army Surgical Research Unit, Experimental Surgery, Army Medical Center, Fort Sam Houston, Tex. 78234. The devices had apertures which enabled exposure of 7% and 15% of the total rat skin surface. The surface of the skin was measured for every animal using Mech's formula: A=kW^2/3; A=surface area in cm^2; W=body weight in grams; k=10.
Method of burning. Each animal was anesthetized with sodium pentobarbital administered i/p (5 mg/25 g). (Producer: Veterinary Laboratory Inc. Lenexa, Kans.). The hair over the dorsum was clipped with animal clippers. The animal was placed supine in the burning device and the extremities were tied; the malleable retractor was placed over the animal and secured snugly with plastic straps. […]

[2] = system: neonatal human keratinocyte cells; experiment: Caspase detection in neonatal human keratinocyte cells in KGM (serum free) medium; format: cell-based
Protocol: The procedure for caspase detection in neonatal human keratinocyte cells in KGM* (serum free) medium treated With BAC-3 using fluorescence spectroscopy
The same procedure as described for fibroblasts except different growth conditions were used (NHK97-45 passage #3 cell line was used). Neonatal human keratinocytes were without the presence of serum (KGM medium). Prior to treatment with BAC-3, passage #3 cells were grown in KGM medium for 7 days with one medium change (until 80% confluent). For preparing positive apoptosis control, plates were irradiated with UVB light for 66 seconds (792 J/m^2).
Cells, at 80% confluence, were administered BAC-3 in KGM at 50 μg/ml, 10 μg/ml, 1 μg/ml and 0.5 μg/ml concentrations. Medium was replaced every two days over the period of 6 days. On day 3, positive apoptosis control was established by irradiating cells with 792 J/m^2 UVB light and incubating them with 1 μg/ml FAS antibody. BAC-3 treated and control cells were harvested and cell densities were adjusted to 1×10^6 cells per ml with FM. 300 μl cell aliquots were labeled with FAM-VAD-FMK, fluorescent-tagged, irreversible caspase inhibitor. Unlabelled inhibitor was washed away with buffer and 100 μl aliquots were read at 485 nm excitation and 535 nm emission with fluorescence detector. Error bars indicate standard deviations.

[3] = system: neonatal human keratinocyte cells; experiment: Caspase detection in neonatal human keratinocyte cells in GM medium (with serum); format: cell-based
Protocol: The procedure for caspase detection in neonatal human keratinocyte cells in GM* medium (with serum) treated with BAC-3 using fluorescence spectroscopy
The same procedure as described for keratinocyte cells in KGM, but with presence of serum (GM). Passage #3 cells were grown in KGM medium for 7 days with one medium change. Plates were irradiated with UVB light for 66 seconds (792 J/m^2)
Cells, at 80% confluence, were administered BAC-3 in GM at 100 μg/ml, 50 μg/ml, 10 μg/ml and 1 μg/ml concentrations. Medium was replaced every two days over the period of 6 days. On day 3, positive apoptosis control was established by irradiating cells with 792 J/m^2 UVB light and incubating them with 1 μg/ml FAS antibody. BAC-3 treated and control cells were harvested and cell densities were adjusted to 1×10^6 cells per ml with FM. 300 μl cell aliquots were labeled with FAM-VAD-FMK, fluorescent-tagged, irreversible caspase inhibitor. Unlabelled inhibitor was washed away with buffer and 100 μl aliquots were read at 485 nm excitation and 535 nm emission with fluorescence detector. Error bars indicate standard deviations.

[4] = system: venous ulcer; experiment: Open wound healing in a patient with incurable venous ulcer; format: in vivo, human; conditions: 1% BAC-3 ointment twice daily during 41 days
Protocol: The BAC-3 rhamnolipid was tested in the case of open wound healing, in a patient suffering around ten years from incurable venous ulcer. On the left leg, the patient had very thick layers of collagen with fibrotic lesions. […] Moreover, after treatment was finished, not only the collagen, but also the fibrotic lesions had disappeared as well. One year after the treatment, the treated skin lesions on the left leg appear normal, and all skin collagen and fibrotic layers had disappeared.

CCCCCCCC(CC(=O)O)OC(=O)CC(CCCCCCC)OC1OC(C)C(O)C(O)C1OC1OC(C)C(O)C(O)C1O [BAC-3, (α-L-rhamnopyranosyl-(1,2)-α-L-rhamnopyranosyl)-3-hyroxydecanoyl-3-hydroxydecanoic acid]
time to whole epithelization in all animals [1]: 30 days
optimal concentration for inducing apoptosis (caspase activity peak) ([2]; keratinocytes in KGM serum free, 6 days, tested 50, 10, 1 and 0.5 μg/ml): 1 µg/mL
mechanism of cell death at higher concentrations ([2]; keratinocytes in KGM, higher concentrations of BAC-3 (detergent effect)): cell necrosis
optimal concentration for inhibiting apoptosis ([3]; keratinocytes in GM with serum, 6 days, tested 100, 50, 10, 1 and 0.5 μg/ml): 50 µg/mL
effect on apoptosis (caspase enzyme activity) ([3]; keratinocytes in GM, presence of serum): inhibited
collagen and fibrotic lesions after treatment ([4]; after treatment and one year later): disappeared
patient's condition ([4]; one patient, venous ulcer, left leg): significantly improved

Source: patent US7129218B2, “Use of rhamnolipids in wound healing, treatment and prevention of gum disease and periodontal regeneration” (Paradigm Biomedical, Inc., priority 1999, dated 2006)
